Data: patent publication US20160311788A1, “Antifouling Compounds And Use Thereof” (National University of Singapore, priority 2008, published 2016)
In brackets after ≈: the same amount, converted by molar mass. Like-named read-outs stand apart in the source and are kept apart here. One block for each molecule: values may come before it.

Legend:
[1] = tested on: Stage II nauplii of Balanus amphitrite; assay: barnacle toxicity assay; format: in vivo
Experimental: (§1) Pure compounds were suspended in DMSO and sonicated to obtain a stock solution of 50 mg ml^−1 in DMSO. This stock solution is stored at −20° C. in 4 ml amber screw cap vials. For the bioassays, a small volume of stock solution was added to 1 μm filtered seawater in a glass scintillation vial. This suspension was then sonicated around 10 minutes. Serial dilutions were generated to the required range of concentrations. Serial dilution of the equivalent amounts of DMSO in seawater was used as the control.
(§2) The barnacle bioassay method used follows from the method first introduced by Rittschof et al. (1992), and subsequently by other authors (Willemsen et al., 1998). This method is now standard practice for many antifouling screening of novel compounds.
Toxicity assays were modified from Rittschof et al. (1992). Stage II naupliar larvae used in tests were obtained from Balanus amphitrite adults collected from inter-tidal rock walls at Kranji mangrove, Singapore. Larvae were collected from a container of adults by attraction to a point source of light and transferred to 500 ml of fresh seawater. Next, larvae were re-concentrated with a fiber optic light and added to assays.
Duplicate assays were conducted in 2 ml glass vials (La Pha Pack® PN 11-14-0544) in 1 ml of filtered seawater for 22 to 24 hours. The assays were repeated for confirmation. There were two sets of controls, a blank control consisting of 3 tubes of seawater only, and DMSO control consisting of the equivalent dilution series with DMSO without compound). For the compounds, there were 3 tubes of each for each test concentration. The assay was initiated by addition of barnacle naupliar in 50 μl of seawater. After 22 to 24 hours of incubation at 25-27° C. solutions containing test animals were transferred to a Bogorov tray and scored as living or dead. Moribund larvae were scored as dead. Results were confirmed by repeating the assay. Data were combined and the concentration that caused 50% mortality (LD50) was calculated by probit analysis using a basic computer program (Libermann, 1983). If data were not appropriate for probit analysis, the LD50 was estimated from graphed data.

[2] = tested on: marine bacteria strain S27; assay: disc inhibition assay, strain S27; format: cell-based, Tenacibaculum lutimaris; conditions: strain 27, 50 μg of compound per disc
Experimental: (§3) The disc inhibition assay was used. This assay is a conventional method routinely used for screening antibacterial compounds to determine degree of susceptibility to antibacterial compounds. The diameter of the zone of inhibition is proportional to the degree of susceptibility of the bacterial strain. The compounds were tested against 13 strains of marine bacteria isolated from Singapore coastal waters.
(§4) 13 strains of marine bacteria were isolated from fouling communities located in the coastal waters around Singapore. These were characterized in earlier studies and reported in Teo et al. (U.S. patent application Ser. No. 11/265,833) and Choong et al (in prep). In addition, four reference bacterial strains were added tested: Escherichia coli (Strain K12, ATCC 15222), E. coli (strain DH5a), Pseudomonas aeruginosa (strain LMG 12228; ATCC 15692) and P. putida (strain KT2440; ATCC 47054). All the bacteria were also tested against five antibiotics: ampicillin (AMP), tetracycline (TETR), erythromycin (ERY), chloramphenicol (CHL) and streptomycin (STREP).
(§5) Disks comprising the compounds to be tested were prepared as follows. The antibacterial assay, the pure compounds were made up to a concentration of 2 mgml^−1 in DMSO. 25 μl of the stock was pipetted onto each 6 mm sterile disc (Macherey-Nagel #484000) to obtain 50 μg of compound per disc. Equivalent volume of DMSO was used inoculated for the control.
(§6) For all disk inhibition assays, bacterial cultures were grown in marine broth (Pronadisa #1217.00). Sterile swabs dipped into the cultures were used to inoculate Marine Agar plates with a bacterial lawn by smearing the culture over the surface. After inoculating the plates, discs with antibiotics, pharmaceuticals or control blanks were placed on each plate. Each concentration of antibiotic or pharmaceutical was tested with two replicates. After the disks were placed on the agar surface, plates were incubated overnight in the dark at 35° C. After incubation, plates were examined for zones of inhibition or clearing around control and treated disks. The diameter of any zone of clearing or inhibition was measured using Vernier calipers. There were two replicates per treatment, and the average was taken.

[3] = tested on: marine bacteria strain S1; assay: disc inhibition assay, strain S1; format: cell-based, Rhodovulum iodosum; conditions: strain 1, 50 μg of compound per disc
Experimental: as §3, §4, §5, §6

[4] = tested on: marine bacteria strain S3; assay: disc inhibition assay, strain S3; format: cell-based, Erythrobacter aquimaris; conditions: for zone of inhibition at 50 µg/disc: Qipengyuania aquimaris, S3, 24 h
Experimental: as §3, §4, §5, §6

[5] = tested on: marine bacteria strain S30; assay: disc inhibition assay, strain S30; format: cell-based, Bacillus borophilicus; conditions: strain 30, 50 μg of compound per disc
Experimental: as §3, §4, §5, §6

[6] = tested on: marine bacteria strain S9; assay: disc inhibition assay, strain S9; format: cell-based, Bacillus algicola; conditions: strain 9, 50 μg of compound per disc; for zone of inhibition at 50 µg/disc: Guptibacillus algicola, S9, 24 h, read-out: zone of inhibition
Experimental: as §3, §4, §5, §6

[7] = tested on: marine bacteria strain S4; assay: disc inhibition assay, strain S4; format: cell-based, Bacillus algicola; conditions: strain 4, 50 μg of compound per disc; for zone of inhibition at 50 µg/disc: Guptibacillus algicola, S4, 24 h, read-out: zone of inhibition
Experimental: as §3, §4, §5, §6

[8] = tested on: marine bacteria strain S18; assay: disc inhibition assay, strain S18; format: cell-based, Microbacterium esteraromaticum; conditions: strain 18, 50 μg of compound per disc
Experimental: as §3, §4
(§7) Disks comprising the compounds to be tested were prepared as follows. The antibacterial assay, the pure compounds were made up to a concentration of 2 mgml^−1 in DMSO. […] Equivalent volume of DMSO was used inoculated for the control.
as §6

[9] = tested on: marine bacteria strain S28; assay: disc inhibition assay, strain S28; format: cell-based, Arthrobacter protophormial; conditions: strain 28, 50 μg of compound per disc
Experimental: as §3, §4, §5, §6

[10] = tested on: cyprids of Balanus amphitrite; assay: barnacle settlement assay; format: in vivo; conditions: for IC50: Amphibalanus amphitrite, 24 h, concentration that caused 50% settlement inhibition, 24 hours, cyprids; for percentage of cyprids that settled: after 24 hours incubation, averaged over two trials
Experimental: as §1, §2
Barnacle settlement assays were based on methodology from Rittschof et al. (1992). Barnacle larvae from field-collected adults were reared on an algal mixture of 1:1 v/v of Tetraselmis suecica and Chaetoceros muelleri at 25° C., at approximately 5×10^5 cells per ml density. On this regime, larvae metamorphose to cyprids in 5 days. These cyprids were aged at 4° C. for 2-3 days, and 45-70% settlement after 24 hours (Willemsen et al., 1998).
Settlement tests were conducted in 7 ml neutral glass vials (Samco® T1 03N1) 34 mm by 23 mm diameter, with 20-40 cyprids per well. Test solutions were made up to twice the required final concentration. 0.5 ml of test solution was added into each well, and cyprids were transferred into each well in 0.5 ml of seawater. Assays were done in triplicate. As before, there were two sets of controls, a blank control consisting 3 tubes of seawater only, and DMSO control consisting of the equivalent dilution series with DMSO without compound. After 24 hours, larvae that had attached and metamorphosed were enumerated and the result expressed as percentage settlement. Larvae not attached were scored as not settled. The assays were repeated and the concentration that caused 50% settlement inhibition (ED50) was determined by pro bit analysis using a basic computer program (Lieberman, 1983), or by estimation from graphed data.

[11] = tested on: marine bacteria strain S29; assay: disc inhibition assay, strain S29; format: cell-based, Bacillus hwajinpoensis; conditions: strain 29, 50 μg of compound per disc
Experimental: as §3, §4, §5, §6

[12] = tested on: marine bacteria strain S14; assay: disc inhibition assay, strain S14; format: cell-based, Vibrio probioticus; conditions: strain 14, 50 μg of compound per disc
Experimental: as §3, §4, §7, §6

[13] = tested on: marine bacteria strain S10; assay: disc inhibition assay, strain S10; format: cell-based, Halobacillus trueperi; conditions: strain 10, 50 μg of compound per disc
Experimental: as §3, §4, §5, §6

[14] = tested on: marine bacteria strain S16; assay: disc inhibition assay, strain S16; format: cell-based, Pseudoalteromonas piscicida; conditions: for zone of inhibition at 50 µg/disc: Pseudoalteromonas piscicida, S16, 24 h
Experimental: as §3, §4, §5, §6

[15] = tested on: marine bacteria strain S17; assay: disc inhibition assay, strain S17; format: cell-based, Gordonia terrae; conditions: strain 17, 50 μg of compound per disc
Experimental: as §3, §4, §5, §6

[16] = Table 3(a), concentration that caused 50% mortality, 22 to 24 hours, Stage II nauplii
[17] = strain 16, 50 μg of compound per disc
[18] = strain 3, 50 μg of compound per disc
[19] = Table 3(a), read-out: ED50 (the source's name)
[20] = Table 3(b), highest concentration tested 25 μg/ml

Compound: CN(C)C(=O)C(c1ccccc1)c1ccccc1 [Compound 3.1, diphenamid, reference compound]
LD50 [1, 16]: > 50 µg/mL | zone of inhibition [2]: − | zone of inhibition [3]: − | zone of inhibition at 50 µg/disc [4]: 2 to 5 mm | zone of inhibition [5]: − | zone of inhibition [6]: − | zone of inhibition [7]: − | zone of inhibition [8]: − | zone of inhibition [9]: − | IC50 ([10]; read-out: ED50, Table 3(a)): 15.1 µg/mL (≈ 63.1 µM) | zone of inhibition [11]: − | zone of inhibition [12]: − | zone of inhibition [13]: − | zone of inhibition [14, 17]: − | zone of inhibition [15]: −

Compound: OC1(c2ccc(Cl)cc2)CCNCC1 [Compound 3.4]
LD50 [1, 16]: 8.41 µg/mL | zone of inhibition [2]: − | zone of inhibition [3]: − | zone of inhibition [4, 18]: − | zone of inhibition [5]: − | zone of inhibition at 50 µg/disc [6]: 2 to 5 mm | zone of inhibition at 50 µg/disc [7]: 2 to 5 mm | zone of inhibition [8]: − | zone of inhibition [9]: − | IC50 [10, 19]: 43.9 µg/mL (≈ 208 µM) | zone of inhibition [11]: − | zone of inhibition [12]: − | zone of inhibition [13]: − | zone of inhibition at 50 µg/disc ([14]; strain 16, 50 μg of compound per disc, read-out: zone of inhibition): 2 to 5 mm | zone of inhibition [15]: −

Compound: O=C(C(c1ccccc1)c1ccccc1)N1CCCCC1 [Compound 4.1, 2,2-Diphenyl-1-(piperidin-1-yl)ethanone]
LD50 [1, 16]: > 50 µg/mL | naupliar toxicity in words ([1]; in vivo): no observable naupliar toxicity | zone of inhibition at 50 µg/disc ([2]; Tenacibaculum lutimaris, S27, 24 h, read-out: zone of inhibition): 2 to 5 mm | zone of inhibition [3]: − | zone of inhibition at 50 µg/disc ([4]; strain 3, 50 μg of compound per disc, read-out: zone of inhibition): 5 to 10 mm | zone of inhibition [5]: − | zone of inhibition at 50 µg/disc [6]: 2 to 5 mm | zone of inhibition at 50 µg/disc [7]: 2 to 5 mm | zone of inhibition at 50 µg/disc ([8]; Microbacterium esteraromaticum, S18, 24 h, read-out: zone of inhibition): 2 to 5 mm | zone of inhibition at 50 µg/disc ([9]; Arthrobacter, S28, 24 h, read-out: zone of inhibition): 2 to 5 mm | anti-settlement activity in words [10]: displayed anti-settlement activity | IC50 [10, 19]: 2.35 µg/mL (≈ 8.41 µM) | zone of inhibition [11]: − | zone of inhibition [12]: − | zone of inhibition at 50 µg/disc ([13]; Halobacillus trueperi, S10, 24 h, read-out: zone of inhibition): 2 to 5 mm | zone of inhibition [14, 17]: − | zone of inhibition at 50 µg/disc ([15]; Gordonia terrae, S17, 24 h, read-out: zone of inhibition): 2 to 5 mm

Compound: CN1CCN(C(=O)C(c2ccccc2)c2ccccc2)CC1 [Compound 4.2, 1-(4-Methylpiperazin-1-yl)-2,2-diphenylethanone]
LD50 [1, 16]: 14.32 µg/mL | anti-settlement activity in words [10]: eliminated anti-settlement behaviour | IC50 [10, 19]: > 50 µg/mL

Compound: CN1CCC(O)(c2ccccc2)CC1 [Compound 4.4]
LD50 [1, 16]: 12.35 µg/mL | zone of inhibition [2]: − | zone of inhibition [3]: − | zone of inhibition [4, 18]: − | zone of inhibition [5]: − | zone of inhibition [6]: − | zone of inhibition [7]: − | zone of inhibition [8]: − | zone of inhibition [9]: − | IC50 [10, 19]: 5.98 µg/mL (≈ 31.3 µM) | zone of inhibition [11]: − | zone of inhibition [12]: − | zone of inhibition [13]: − | zone of inhibition at 50 µg/disc [14]: 2 to 5 mm | zone of inhibition [15]: −

IC50 [10, 19]: > 50 µg/mL
Compound: O=C(C(c1ccccc1)c1ccccc1)N1CCC(CCO)CC1 [Compound 9.2]
LD50 [1, 16]: 49.24 µg/mL

IC50 [10, 19]: < 10 µg/mL
Compound: CCCCCCC(CCCC)C(=O)N1CCCCC1 (stereo not shown) [Compound 12.8]
LD50 [1, 20]: 3.35 µg/mL | percentage of cyprids that settled ([10]; 0.2 ug/ml): 25.82% | percentage of cyprids that settled ([10]; 1 ug/ml): 8.62% | percentage of cyprids that settled ([10]; 5 ug/ml): 0% | percentage of cyprids that settled ([10]; 25 ug/ml): 0%

Compound: CCCCCCCCCCC(CCCC)C(=O)N1CCCCC1 (stereo not shown) [Compound 12.9]
LD50 [1, 20]: >25 µg/mL | percentage of cyprids that settled ([10]; 0.2 ug/ml): 28.14% | percentage of cyprids that settled ([10]; 1 ug/ml): 10.56% | percentage of cyprids that settled ([10]; 5 ug/ml): 1.94% | percentage of cyprids that settled ([10]; 25 ug/ml): 1.32%

Compound: CCCCCCCCCCC(CCCCCCCC)C(=O)N1CCCCC1 (stereo not shown) [Compound 12.10]
LD50 [1, 20]: >25 µg/mL | percentage of cyprids that settled ([10]; 0.2 ug/ml): 12.5% | percentage of cyprids that settled ([10]; 1 ug/ml): 13.00% | percentage of cyprids that settled ([10]; 5 ug/ml): 11.40% | percentage of cyprids that settled ([10]; 25 ug/ml): 17.88%

Compound: CCCCCCC(C(=O)N1CCCCC1)c1ccccc1 (stereo not shown) [Compound 12.11]
LD50 [1, 20]: >25 µg/mL

Compound: CCCCCCC(CCCCCC)C(=O)N1CCCCC1 [Compound 12.12]
LD50 [1, 20]: 0.2 to 1 µg/mL
